Laboratory results taken from patent publication US6087493A, “Porphyrin compounds as telomerase inhibitors” (Regents of the University of Texas System, priority 1998, dated 2000).

Experiments:
sea urchin embryos = tested on: sea urchin embryos
Description: Lytechinus pictus sea urchins were purchased from Marinus Inc. (Long Beach, Calif.) and maintained at 15° C. in refrigerated aquaria containing Instant Ocean synthetic sea water, following a described procedure [Vafa, 1996 #300]. For polyspermic fertilization, 0.01 vol freshly prepared stock sperm suspension (25 ml ASW containing 2 ml undiluted semen) was added to the eggs suspended for 10 min at 1% concentration in ASW adjusted to pH 9.0 with NH4 OH and stirred at 60 rpm with motor-driven Teflon paddles. Ten min after insemination, the fertilized eggs were allowed to settle, and the supernatant ASW containing sperm was aspirated and replaced with fresh ASW. The embryos were cultured at 18° C. Twenty min after fertilization TMPyP4 or TMPyP4.Pt^II (100 μM final concentration) was added from a concentrated stock in DMSO to 1% embryo suspensions. Equivalent amounts of DMSO (final 0.1%) were added to control egg suspensions. At measured times after insemination, the embryos were pelleted by centrifugation and resuspended in Carnoy's fixative (ethanol:acetic acid, 3:1) for at least 1 hr. After fixation the embryos were pelleted and resuspended successively in: (1) ethanol:acetic acid, 1:1 for 5-15 min: (2) 45% acetic acid for 5-15 min; (3) room temperature 1 N HCl for 1-2 min: (4) 60° C. 1 N HCl for 7-8 min; (5) room temperature 1 N HCl for 1-2 min; (6) Schiffs reagent for 90-120 min; and (7) 45% acetic acid before affixing the embryos to microscope slides. Embryo samples were placed on microscope slides, covered with coverslips, and frozen on a bed of dry ice. After at least 30 min, the coverslips were popped off using a razor blade and the slides were immediately plunged into Coplin jars containing 95% ethanol for 5-10 min. The slides were then transferred to Coplin jars containing 100% ethanol for 3-5 min. After removing the slides and allowing them to air dry, the embryos were mounted with one drop Permount (Fisher) under a coverglass.
The inventors examined whether treatment of the embryos with G-quadroplex interactive agents can cause observable chromosomal abnormalities. A time course of the embryo development was followed in the presence of 10 μM and 100 μM concentrations of TMPyP4 or TMPyP4.Pt^II.

[1] = tested on: telomere length in MCF7 cells; experiment: Telomere length analysis in MCF7 cells; assay type: cell-based, human; details: 1 and 10 μM, by day 8 (about 6 population doublings)
Description: DNA was extracted from a minimum of 5×10^6 cells by SDS, proteinase K treatment, then purified and quantitated as previously described (Strahl and Blackburn, 1991). Approximately 1 μg of total DNA was digested with Mse I; the digested DNA was size fractionated by agarose gel electrophoresis and Southern blotted. The blots were hybridized with a ^32 P-labeled 0.5 kb PCR™ DNA fragments composed of the telomere repeat d(TTAGGG), which served as a probe for the telomeres. The hybridized probe was detected by autoradiography and each lane on the film was analyzed by phosphoimage analysis (Molecular Dynamics).
Telomeres shorten at an average rate of 65-100 base pairs per cell division (Counter et al., 1992). To observe a significant effect of an agent on telomere length, e.g., shortening the telomeres by >1 kilobase in MCF7 cells (5.7 kbases), a minimum of […] population doubling times will be required.

HeLa = experiment: cells; assay type: cell-based, human; details: Homo sapiens; HeLa, MTT (n = 3 ± SEM); read-out: Cytotoxicity
BT-20 = experiment: Cytotoxicity (MTT) BT-20; assay type: cell-based, human; details: Homo sapiens; BT-20 (breast), 4-7 days; read-out: IC 50 cytotoxicity
Description: (§1) The cells were cultured in the presence of the porphyrins incubator for 4-7 days and then treated with 3-(4,5-dimethylthiazol-2-yl)-2,5-diphenyl-tetrazolium bromide (MTT). Formazan concentration was quantitated by absorbance at 570 nm.

[2] = tested on: single-stranded sequence bearing four human telomeric repeats
Description: The DNA was labeled with 32p at the 5'-end and stored in buffer (10 mM Tris-HCl, 1 mM EDTA, pH 8.0) at 3000 cpm/μl. For each photocleavage reaction, 10 μl of DNA (~5 ng) was mixed with 10 μl of 200 mM KCl, boiled for 10 min, and cooled to room temperature. For the control studies, 10 μl of distilled water was added instead of the KCl solution. The mixtures were transferred to a 96 well plate, 2 μl of 1 μM aqueous TMPyP4 solution added, and the samples exposed to a 24 W fluorescent day-light under a glass filter for various periods of time. The reactions were stopped with 100 μl of calf thymus DNA (0.1 μg/μl), and after phenol-chloroform extraction, the samples were subjected to strand breakage treatment and ethanol precipitation (Han and Hurley, 1996).
A single-stranded sequence bearing four human telomeric repeats was treated with TMPyP4 and then exposed to light.

LNCap = experiment: Cytotoxicity (MTT) LNCap; assay type: cell-based, human; details: Homo sapiens; LNCap (prostate), 4-7 days; read-out: IC 50 cytotoxicity
Description: as §1

DU145 = experiment: Cytotoxicity (MTT) DU145; assay type: cell-based, human; details: Homo sapiens, DU-145; DU145 (prostate), 4-7 days; read-out: IC 50 cytotoxicity
Description: as §1

MCF-7 = experiment: Cytotoxicity (MTT) MCF-7; assay type: cell-based, human; details: Homo sapiens, MCF7; MCF-7 (breast), 4-7 days; read-out: IC 50 cytotoxicity
Description: as §1

MCF7 cells = experiment: Cell cycle analysis in MCF7 cells; assay type: cell-based, human
Description: The effects of TMPyP4 on the cell cycle were assessed by flow cytometry by measuring the percentage of cells in G1/G0, S, and G2/M phases, with and without treatment with the porphyrin. Cells were stained with 50 μg/ml propidium iodide in a hypotonic sodium citrate solution with 0.3% NP-40 and 1.0 mg/ml RNase-A at 1.0×10^6 cells/ml, vortexed and stained for 30 min at room temperature in the dark. Prior to flow cytometric measurements, samples were filtered through a 37 μm nylon mesh into 12×75 mm tubes and stored at 4° C. until analysis within 24 h. All samples were analyzed with an EPICS ELITE flow cytometer (Coulter Cytometry, Miami, Fla.) using a 15 m Watt argon ion laser operated at 6 Amps of power at 488 nm for fluorochrome excitation. Photomultiplier tube voltage was adjusted for each control sample to position the G0G1 to channel 240 on a 1024 channel presentation. The propidium iodide emission was collected through a 675 nm long pass filter. Histograms were analyzed for cell cycle compartments using MultiCycle-PLUS Version 3.0 (Phoenix Flow Systems, San Diego, Calif.). Histograms all had 50K events collected to maximize the statistical validity of the compartmental analysis.
The inventors examined whether the treatment of MCF7 cells with TMPyP4 affected the cell cycle.

[3] = Cytotoxicity (MTT) NHLF normal lung fibroblasts; assay type: cell-based; details: human, nhlf cells; NHLF (normal), 4-7 days; read-out: IC 50 cytotoxicity
Description: as §1
All porphyrins were obtained from Midcentury, Posen, Ill. The experimental work with porphyrins was performed under minimum exposure to light. All human tumor cell lines and normal human breast cells Hs578Bst were purchased from the American Type Culture Collection. Normal human lung fibroblasts NHLF were obtained from Clonetics Corporation. The cell lines were grown according to the suppliers' instructions.

With `C[n+]1ccc(-c2c3nc(c(-c4cc[n+](C)cc4)c4ccc([nH]4)c(-c4cc[n+](C)cc4)c4nc(c(-c5cc[n+](C)cc5)c5ccc2[nH]5)C=C4)C=C3)cc1` [TMPyP4, 5,10,15,20-tetra-(N-methyl-4-pyridyl)porphine] the “differences from controls in embryos” value (sea urchin embryos; 10 μM, 150 min after fertilization) was “no definitive differences were seen”, the “condensed chromosome length / chromosomal effects” value (sea urchin embryos; 100 μM) was “condensed chromosomes were longer than in the untreated controls” and the “proliferation and mitosis in embryos” value (sea urchin embryos; in vivo) was “significantly decreases proliferative rates in the developing embryos and increases the percent of the cell in mitosis”. For the same compound, the toxicity to embryos (sea urchin embryos; in vivo) was “generally non-toxic to the embryos”, the “cell number and morphology of embryos” value (sea urchin embryos; later time points) was “fewer cells, many very misshapen and variable in size relative to the controls” and the “first signs of ciliary motility” value (sea urchin embryos; treated embryos) was 9 h. The “effect on telomere shortening” value [1] was “No detectable effects on telomere shortening”, the IC50 (HeLa) was 18.7 ± 3.89 µM and the IC50 (BT-20) was 106 µM. For the same compound, the photocleavage selectivity [2] was “clear selectivity for cleavage at the 5'-ApG-3' step at G1 and G7, and 5'-GpT-3' step at G6 and G12”, the IC50 (LNCap) was 22.8 µM and the IC50 (DU145) was 93.6 µM. For the same compound, the IC50 (MCF-7) was 49.6 µM, the G2/M phase fraction (MCF7 cells; 100 μM, days 4, 8 and 15) was “time-dependent gradual increase in the G2/M phase” and the “MCF7 cells arrested in G2/M” value (MCF7 cells; long-term exposure) was “not more than 32%”. The CC50 [3] was 13.5 µM.
